Measured values taken from patent US9206219B2, “17-hydroxy-17-pentafluorethyl-estra-4,9(10)-dien-11-aryl derivatives, methods for the production thereof and the use thereof for treating diseases” (Bayer Intellectual Property GmbH, priority 2009, dated 2015).

Experiments:
[1] = target: T1, human progesterone receptor B (Homo sapiens, UniProt P06401); assay: Progesterone receptor-antagonistic action in stably transfected SK-N-MC cells, MMTV-LUC reporter (PR-B); type: cell-based; conditions: antagonistic potency vs 0.1 nmol/l promegestone, 24 hours
T1 construct: expressed in transfected cells; host or cells: SK-N-MC human neuroblastoma cells, stably transfected with pRChPR-B-neo and pMMTV-LUC
T1 sequence (P06401 1-933): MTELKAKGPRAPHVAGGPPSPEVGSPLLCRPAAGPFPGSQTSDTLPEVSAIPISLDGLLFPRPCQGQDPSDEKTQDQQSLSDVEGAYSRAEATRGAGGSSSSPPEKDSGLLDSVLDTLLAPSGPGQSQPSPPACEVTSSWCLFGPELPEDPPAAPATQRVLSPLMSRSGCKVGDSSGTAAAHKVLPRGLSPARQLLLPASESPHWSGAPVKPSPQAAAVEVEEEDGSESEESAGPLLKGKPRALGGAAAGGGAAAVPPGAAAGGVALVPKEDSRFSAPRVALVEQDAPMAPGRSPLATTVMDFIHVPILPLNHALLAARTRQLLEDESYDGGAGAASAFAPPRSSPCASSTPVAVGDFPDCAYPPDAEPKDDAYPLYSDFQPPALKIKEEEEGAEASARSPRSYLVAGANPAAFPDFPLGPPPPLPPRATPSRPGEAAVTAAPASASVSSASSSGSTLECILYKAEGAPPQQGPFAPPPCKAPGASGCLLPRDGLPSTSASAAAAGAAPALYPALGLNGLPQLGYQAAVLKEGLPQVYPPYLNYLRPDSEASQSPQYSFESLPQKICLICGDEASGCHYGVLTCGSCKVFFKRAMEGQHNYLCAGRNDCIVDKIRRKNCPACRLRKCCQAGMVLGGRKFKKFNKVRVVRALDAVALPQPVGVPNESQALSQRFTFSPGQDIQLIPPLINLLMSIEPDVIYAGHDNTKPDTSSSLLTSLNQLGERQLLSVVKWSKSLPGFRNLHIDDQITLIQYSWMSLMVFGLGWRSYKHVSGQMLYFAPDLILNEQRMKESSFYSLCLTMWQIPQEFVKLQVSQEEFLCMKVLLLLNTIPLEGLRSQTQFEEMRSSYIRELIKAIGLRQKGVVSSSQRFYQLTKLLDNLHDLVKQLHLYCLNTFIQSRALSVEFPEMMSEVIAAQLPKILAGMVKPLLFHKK
Method: (§1) Progesterone Receptor-Antagonistic Action in Stable Transfectants of Human Neuroblastoma Cells (SK-N-MC Cells) with the Human Progesterone A or Progesterone B Receptor and an MN-LUC Reporter Construct
(§2) SK-N-MC cells (human neuroblastoma cells) which have been stably transfected with plasmids expressing the human progesterone receptor B (pRChPR-B-neo) or the human progesterone receptor A (pRChPR-A-neo) and a reporter construct (pMMTV-LUC) were incubated for 24 hours either in the absence (negative control) or in the presence of ascending amounts of the particular test compound (0.01 nmol/l, 0.1 nmol/l, 1 nmol/l, 10 nmol/l, 100 nmol/l and […]), in order to determine the agonistic efficacy. As a positive control of the reporter gene induction, the cells were treated with the synthetic gestagen promegestone (0.01 nmol/l, 0.1 nmol/l, 1 nmol/l, 10 nmol/l, 100 nmol/l and […]). To determine the antagonistic activity, the cells were treated with 0.1 nmol/l promegestone and additionally with ascending amounts of the particular test compound (0.01 nmol/l, 0.1 nmol/l, 1 nmol/l, 10 nmol/l, 100 nmol/l and […]). The activity of the reporter gene LUC (LUC=luciferase) was determined in the cell lysates and measured as RLU (relative light units). All measurements are reported as % efficacy and as EC50 and IC50 concentrations.

[2] = target: T2, human progesterone receptor A (Homo sapiens, UniProt P06401); assay: Progesterone receptor-antagonistic action in stably transfected SK-N-MC cells, MMTV-LUC reporter (PR-A); type: cell-based; conditions: antagonistic potency vs 0.1 nmol/l promegestone, 24 hours
T2 construct: expressed in transfected cells; host or cells: SK-N-MC human neuroblastoma cells, stably transfected with pRChPR-A-neo and pMMTV-LUC
T2 sequence (P06401 1-769 isoform P06401-2): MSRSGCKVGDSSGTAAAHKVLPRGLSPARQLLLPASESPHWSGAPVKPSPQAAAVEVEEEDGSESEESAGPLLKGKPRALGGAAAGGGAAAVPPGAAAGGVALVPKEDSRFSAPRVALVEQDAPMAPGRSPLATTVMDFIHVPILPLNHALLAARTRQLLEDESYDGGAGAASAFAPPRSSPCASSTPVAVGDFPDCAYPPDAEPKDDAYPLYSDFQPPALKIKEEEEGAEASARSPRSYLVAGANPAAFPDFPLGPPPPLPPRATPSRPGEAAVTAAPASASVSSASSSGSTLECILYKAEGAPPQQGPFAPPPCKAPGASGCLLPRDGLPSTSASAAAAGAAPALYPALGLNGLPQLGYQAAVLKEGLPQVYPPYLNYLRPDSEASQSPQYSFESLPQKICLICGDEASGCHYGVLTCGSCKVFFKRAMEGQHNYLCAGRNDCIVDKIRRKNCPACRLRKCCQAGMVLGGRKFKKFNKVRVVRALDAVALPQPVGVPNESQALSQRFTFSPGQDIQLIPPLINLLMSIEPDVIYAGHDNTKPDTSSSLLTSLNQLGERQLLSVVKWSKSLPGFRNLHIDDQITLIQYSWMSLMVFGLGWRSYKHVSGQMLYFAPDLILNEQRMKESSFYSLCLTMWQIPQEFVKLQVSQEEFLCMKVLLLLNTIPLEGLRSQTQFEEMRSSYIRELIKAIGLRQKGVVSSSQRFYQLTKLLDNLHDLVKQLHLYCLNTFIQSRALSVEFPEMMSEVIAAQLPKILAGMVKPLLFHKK
Method: as §1, §2

| Structure (SMILES) | IC50 [1] [nM] | IC50 [2] [nM] |
| --- | --- | --- |
| C[C@]12C[C@H](c3ccc(CNC(=O)NCC(=O)O)cc3)C3=C4CCC(=O)C=C4CC[C@H]3[C@@H]1CC[C@@]2(O)C(F)(F)C(F)(F)F [Example 26, {3-[4-((8S,11R,13S,14S,17S)-17-hydroxy-13-methyl-3-oxo-17-pentafluoroethyl-2,3,6,7,8,11,12,13,14,15,16,17-dodecahydro-1H-cyclopenta[a]phenanthren-11-yl)benzyl]ureido}acetic acid] | 64 | 24 |
| C[C@]12C[C@H](c3ccc(CNC(=O)NCCC(=O)O)cc3)C3=C4CCC(=O)C=C4CC[C@H]3[C@@H]1CC[C@@]2(O)C(F)(F)C(F)(F)F [Example 27, 3-{3-[4-((8S,11R,13S,14S,17S)-17-hydroxy-13-methyl-3-oxo-17-pentafluoroethyl-2,3,6,7,8,11,12,13,14,15,16,17-dodecahydro-1H-cyclopenta[a]phenanthren-11-yl)benzyl]ureido}propionic acid] | 29 | 43 |
| C[C@]12C[C@H](c3ccc(CN=[N+]=[N-])cc3)C3=C4CCC(=O)C=C4CC[C@H]3[C@@H]1CC[C@@]2(O)C(F)(F)C(F)(F)F [Example 28, (8S,11R,13S,14S,17S)-11-(4-azidomethylphenyl)-17-hydroxy-13-methyl-17-pentafluoroethyl-1,2,6,7,8,11,12,13,14,15,16,17-dodecahydrocyclopenta[a]phenanthren-3-one] | 0.08 | 0.01 |
| C[C@]12C[C@H](c3ccc(-c4nnn[nH]4)cc3)C3=C4CCC(=O)C=C4CC[C@H]3[C@@H]1CC[C@@]2(O)C(F)(F)C(F)(F)F [Example 31, (8S,11R,13S,14S,17S)-17-hydroxy-13-methyl-17-pentafluoroethyl-11-[4-(1H-tetrazol-5-yl)phenyl]-1,2,6,7,8,11,12,13,14,15,16,17-dodecahydrocyclopenta[a]phenanthren-3-one] | 137 | 138 |
| COc1ccc(NC(=O)NCc2ccc([C@H]3C[C@@]4(C)[C@@H](CC[C@@]4(O)C(F)(F)C(F)(F)F)[C@@H]4CCC5=CC(=O)CCC5=C43)cc2)cc1 [Example 32, 1-[4-((8S,11R,13S,14S,17S)-17-hydroxy-13-methyl-3-oxo-17-pentafluoroethyl-2,3,6,7,8,11,12,13,14,15,16,17-dodecahydro-1H-cyclopenta[a]phenanthren-11-yl)benzyl]-3-(4-methoxyphenyl)urea] | 0.2 | 0.1 |
| C[C@]12C[C@H](c3ccc(CNC(=O)Nc4ccc(F)cc4)cc3)C3=C4CCC(=O)C=C4CC[C@H]3[C@@H]1CC[C@@]2(O)C(F)(F)C(F)(F)F [Example 33, 1-(4-fluorophenyl)-3-[4-((8S,11R,13S,14S,17S)-17-hydroxy-13-methyl-3-oxo-17-pentafluoroethyl-2,3,6,7,8,11,12,13,14,15,16,17-dodecahydro-1H-cyclopenta[a]phenanthren-11-yl)benzyl]urea] | 0.8 | 0.8 |
| C[C@]12C[C@H](c3ccc(CNC(=O)Nc4ccc(Cl)cc4)cc3)C3=C4CCC(=O)C=C4CC[C@H]3[C@@H]1CC[C@@]2(O)C(F)(F)C(F)(F)F [Example 34, 1-(4-chlorophenyl)-3-[4-((8S,11R,13S,14S,17S)-17-hydroxy-13-methyl-3-oxo-17-pentafluoroethyl-2,3,6,7,8,11,12,13,14,15,16,17-dodecahydro-1H-cyclopenta[a]phenanthren-11-yl)benzyl]urea] | 0.8 | 0.7 |
| CC(C)(C)c1ccc(NC(=O)NCc2ccc([C@H]3C[C@@]4(C)[C@@H](CC[C@@]4(O)C(F)(F)C(F)(F)F)[C@@H]4CCC5=CC(=O)CCC5=C43)cc2)cc1 [Example 35, 1-(4-tert-butylphenyl)-3-[4-((8S,11R,13S,14S,17S)-17-hydroxy-13-methyl-3-oxo-17-pentafluoroethyl-2,3,6,7,8,11,12,13,14,15,16,17-dodecahydro-1H-cyclopenta[a]phenanthren-11-yl)benzyl]urea] | 0.6 | 0.3 |
| CCOC(=O)c1ccc(NC(=O)NCc2ccc([C@H]3C[C@@]4(C)[C@@H](CC[C@@]4(O)C(F)(F)C(F)(F)F)[C@@H]4CCC5=CC(=O)CCC5=C43)cc2)cc1 [Example 36, 4-{3-[4-((8S,11R,13S,14S,17S)-17-hydroxy-13-methyl-3-oxo-17-pentafluoroethyl-2,3,6,7,8,11,12,13,14,15,16,17-dodecahydro-1H-cyclopenta[a]phenanthren-11-yl)benzyl]ureido}benzoic acid ethyl ester] | 0.8 | 0.7 |
| C[C@]12C[C@H](c3ccc(CNC(=O)Nc4ccc(C(=O)O)cc4)cc3)C3=C4CCC(=O)C=C4CC[C@H]3[C@@H]1CC[C@@]2(O)C(F)(F)C(F)(F)F [Example 38, 4-{3-[4-((8S,11R,13S,14S,17S)-17-hydroxy-13-methyl-3-oxo-17-pentafluoroethyl-2,3,6,7,8,11,12,13,14,15,16,17-dodecahydro-1H-cyclopenta[a]phenanthren-11-yl)benzyl]ureido}benzoic acid] | 36 | 25 |
| C[C@]12C[C@H](c3ccc(CNC(=O)Nc4ccc(N5CCCCC5)cc4)cc3)C3=C4CCC(=O)C=C4CC[C@H]3[C@@H]1CC[C@@]2(O)C(F)(F)C(F)(F)F [Example 39, 1-[4-((8S,11R,13S,14S,17S)-17-hydroxy-13-methyl-3-oxo-17-pentafluoroethyl-2,3,6,7,8,11,12,13,14,15,16,17-dodecahydro-1H-cyclopenta[a]phenanthren-11-yl)benzyl]-3-(4-piperidin-1-ylphenyl)urea] | 0.2 | 0.1 |
| CC1(c2ccc([C@H]3C[C@@]4(C)[C@@H](CC[C@@]4(O)C(F)(F)C(F)(F)F)[C@@H]4CCC5=CC(=O)CCC5=C43)cc2)COC1 [Example 40, (8S,11R,13S,14S,17S)-17-hydroxy-13-methyl-11-[4-(3-methyloxetan-3-yl)phenyl]-17-pentafluoroethyl-1,2,6,7,8,11,12,13,14,15,16,17-dodecahydrocyclopenta[a]phenanthren-3-one] | 0.05 | 0.01 |
| CC(C)NC(=O)OCc1ccc([C@H]2C[C@@]3(C)[C@@H](CC[C@@]3(O)C(F)(F)C(F)(F)F)[C@@H]3CCC4=CC(=O)CCC4=C32)cc1 [Example 42, isopropylcarbamic acid 4-((8S,11R,13S,14S,17S)-17-hydroxy-13-methyl-3-oxo-17-pentafluoroethyl-2,3,6,7,8,11,12,13,14,15,16,17-dodecahydro-1H-cyclopenta[a]phenanthren-11-yl)benzyl ester] | 0.2 | 0.1 |
